Series [1] can be described thus: Solubility (solvents listed in table). The settings on record: solvents in which the compound is soluble, in words.
In a further series the target is nicotinic receptors Rα7 (Rattus norvegicus, UniProt Q05941). Put plainly: biochemical. It counts as binding.

As a reminder, the melting point is the temperature of the solid-liquid transition. One may read the Ki as a measure of affinity in units of concentration, obtained from inhibition or displacement. Read a high Ki as weaker binding.

Molecules are shown by their SMILES.

Sequence of nicotinic receptors Rα7 (Q05941 23-502): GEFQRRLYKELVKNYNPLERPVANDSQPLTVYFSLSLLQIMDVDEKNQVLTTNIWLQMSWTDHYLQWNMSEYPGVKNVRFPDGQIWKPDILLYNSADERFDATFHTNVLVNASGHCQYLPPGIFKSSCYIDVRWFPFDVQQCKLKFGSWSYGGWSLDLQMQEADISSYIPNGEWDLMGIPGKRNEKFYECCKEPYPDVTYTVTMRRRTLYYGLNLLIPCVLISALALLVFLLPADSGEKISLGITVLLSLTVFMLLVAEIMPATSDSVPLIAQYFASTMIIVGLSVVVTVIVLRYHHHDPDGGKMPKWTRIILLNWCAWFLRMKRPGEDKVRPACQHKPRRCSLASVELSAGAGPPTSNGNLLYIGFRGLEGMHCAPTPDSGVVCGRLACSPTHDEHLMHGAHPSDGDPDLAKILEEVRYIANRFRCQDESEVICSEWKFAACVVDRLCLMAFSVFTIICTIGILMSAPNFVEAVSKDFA

Compound `CN1[C@@H]2CC[C@H]1C[C@@H](n1cc(-c3ccc(Cl)c(Cl)c3)nn1)C2` [Compound 24, Endo-3-(4-(3,4-dichlorophenyl)-1H-1,2,3-triazol-1-yl)tropane] registered a melting point of 136 °C. Besides, the Solubility entry in series [1] is given as “M = 337.25 g/mol C16H18Cl2N4 CHCl3 − DMSO”. Moreover, the inhibitory constant (Ki) at nicotinic receptors Rα7 came to 110 ± 36 nM.
`CN1[C@@H]2CC[C@H]1C[C@@H](n1cc(-c3ccc4sccc4c3)nn1)C2` [Compound 25, Endo-3-(4-(1-Benzothiophen-5-yl)-1H-1,2,3-triazol-1-yl)tropane] showed a melting point of 163 °C. Moreover, the Solubility entry in series [1] is recorded as “M = 324.44 g/mol C18H20N4S CHCl3 − DMSO”. On nicotinic receptors Rα7, this compound registered an inhibitory constant (Ki) of 14 ± 4 nM.
`CN1[C@@H]2CC[C@H]1C[C@@H](n1cc(-c3ccccc3)nn1)C2` [Compound 16, Endo-3-(4-phenyl-1H-1,2,3-triazol-1-yl)tropane] returned a melting point of 135 °C. The Solubility result in series [1] was “M = 268.36 g/mol C16H20N4 CHCl3 − DMSO”. At nicotinic receptors Rα7, this compound displayed an inhibition constant Ki of 168 ± 68 nM.
On the same counts, the results for `CN1[C@@H]2CC[C@H]1C[C@@H](n1cc(-c3ccc(F)cc3)nn1)C2` [Compound 17, Endo-3(4-(4-fluorophenyl)-1H-1,2,3-triazol-1-yl)tropane] are 254 °C, “M = 286.35 g/mol C16H19FN4 CHCl3 − DMSO” and 210 ± 31 nM.
For `CN1[C@@H]2CC[C@H]1C[C@@H](n1cc(-c3ccc(Br)s3)nn1)C2` [Compound 27, Endo-3-(4-(5-bromothiophen-2-yl)-1H-1,2,3-triazol-1-yl)tropane], the melting point is 138 °C. The Solubility result in series [1] is “M = 353.28 g/mol C14H17BrN4S CHCl3 − DMSO”. Further, at nicotinic receptors Rα7, the inhibition constant Ki came out at 275 ± 43 nM.

Source of the values: patent US10059704B2, “1,4-disubstituted 1,2,3-triazoles, methods for preparing same, and diagnostic and therapeutic uses thereof” (CENTRE NATIONAL DE LA RECHERCHE SCIENTIFIQUE (C.N.R.S.), priority 2011, dated 2018).
